{"source": "patent US20080299176A1", "about": "“DRUG DELIVERY DEVICE COMPRISING CROSSLINKED POLYURETHANE-SILOXANE-CONTAINING COPOLYMERS” (priority 2007, published 2008)", "test": "Diffusion of FA through the copolymer membranes (Valia-Chien diffusion apparatus)", "type": "physicochemical", "conditions": "membrane of Example 5 composition, thickness 100 μm; PBS, 37° C.; FA 2 mg in donor cell; HPLC at 238 nm", "description": "The diffusion was carried out using Valia-Chien diffusion apparatus. FA and membranes with a composition described in Example 5 were used. FA (2 mg) and PBS (3.2 mL) were added to each of the donor cells, and 3.2 mL PBS were added in each of the receptor cells. The cells were capped and the temperature was kept at 37° C. using a circulating water bath. At given time intervals, the diffusion media in the receptor cells were removed and replaced by fresh PBS. FA concentration in the release media was determined using a set of HP series 1100 HPLC instruments equipped with a degasser, a binary pump, an auto sampler and a DAD detector. The column used was an Altima C18 (5μ, 250 mm×4.6 mm). The mobile phase was 40% ACN in water and the flow rate was 1.0 mL/m in. The eluted FA was detected at 238 nm. The concentration of FA in the media was directly determined using HPLC. The diffusion rate of FA through the copolymer membranes with a thickness of 100 μm was estimated to be 1.4 μg/cm^2/hour.", "data": [{"smiles": "CC1(C)O[C@@H]2C[C@H]3[C@@H]4C[C@H](F)C5=CC(=O)C=C[C@]5(C)[C@@]4(F)[C@@H](O)C[C@]3(C)[C@]2(C(=O)CO)O1", "note": "[FA, fluocinolone acetonide]", "values": [{"measurement": "diffusion rate of FA through the copolymer membranes", "value": 1.4, "unit": "μg/cm^2/hour"}]}]}
